In data set [1] the test system is Mycobacterium tuberculosis. The experiment in a line: Antitubercular activity against Mycobacterium tuberculosis H37Rv ATCC 27294 cultured in 7H9/ADC/Tw media assessed as inhibition of bacterial growth incubated for 7 days. The data set is classed as functional. The conditions noted are these: H37Rv ATCC 27294, 168 h, time 7 day.
For data set [2], the system named is Mycobacterium tuberculosis. Briefly: Antitubercular activity against Mycobacterium tuberculosis H37Rv ATCC 27294 cultured in GAST/Fe media assessed as inhibition of bacterial growth incubated for 7 days. The data set is classed as functional. The following applies: H37Rv ATCC 27294, 168 h, time 7 day.
A short description of data set [3]: Stability in mouse plasma assessed as half life. The data set is classed as ADME, cell-free.
The nature of data set [4]: Protein binding in mouse plasma assessed as free fraction. Format: ADME, cell-free.
Data set [5] in a line: Drug metabolism in mouse plasma assessed as 2-(4-methoxyphenyl)benzo[d]oxazol-5-amine formation. Format: ADME, cell-free.
The test system of data set [6] is Mycobacterium tuberculosis. Briefly: Antitubercular activity against Mycobacterium tuberculosis H37Rv ATCC 27294 cultured in 7H9/DPPC/casitone/Tx media assessed as inhibition of bacterial growth incubated for 7 days. Format: functional. The conditions noted are these: H37Rv ATCC 27294, 168 h, time 7 day.

Molecules are shown by their SMILES. Values after ≈ are worked out from the molar mass of the structure shown.

With `COc1ccc(-c2nc3cc(N)ccc3o2)cc1`, the MIC in data set [1] was at least 12.5 µM.

Consider `N[C@@H](CC(=O)Nc1ccc2oc(-c3ccc(O)cc3)nc2c1)Cc1ccccc1`, for which the MIC in data set [2] and in data set [1] was 19 µM (≈ 7.36 µg/mL) each time.

`N[C@H](Cc1ccccc1)C(=O)Nc1ccc2oc(-c3ccc(O)cc3)nc2c1`: the MIC in data set [2] was found to be 2.3 µM (≈ 0.859 µg/mL); in data set [1], 1.2 µM (≈ 0.448 µg/mL).

Consider `C#CCOc1ccc(-c2nc3cc(NC(=O)[C@H](N)Cc4ccccc4)ccc3o2)cc1`, for which the half-life in data set [3] is 5 h. For the same molecule, in data set [4], the fraction unbound is under 0.004. In addition, the MIC in data set [1] was 1.2 µM (≈ 0.494 µg/mL).

`COc1ccc(-c2nc3cc(NC(=O)[C@H](N)Cc4ccccc4)ccc3o2)cc1`: the half-life in data set [3] came to 0.417 h. The MIC in data set [2] and in data set [1] was 1.56 µM (≈ 0.604 µg/mL) each time. In addition, the Drug metabolism result in data set [5] is given as “Metabolite_Detected”.

For `COc1ccc(Cc2nc3cc(NC(=O)[C@H](N)Cc4ccccc4)ccc3o2)cc1`, the MIC in data set [2] and in data set [1] was 3.13 µM (≈ 1.26 µg/mL) each time.

Consider `COc1ccc(-c2nc3cc(C(=O)NC[C@H](N)Cc4ccccc4)ccc3o2)cc1`, for which the MIC in data set [6] and in data set [1] was 6.25 µM (≈ 2.51 µg/mL) in each case. Besides, the half-life in data set [3] was over 4 h. Moreover, in data set [4], the Fu came out at 1.2%.

For `N[C@H](CCc1ccccc1)C(=O)Nc1ccc2oc(-c3ccc(O)cc3)nc2c1`, the MIC in data set [2] and in data set [1] was 3.13 µM (≈ 1.21 µg/mL) in each case.

For the molecule `N[C@H](Cc1ccccc1)C(=O)Nc1ccc2ocnc2c1`, the figures for the MIC in data set [2] and in data set [1] were 25 µM (≈ 7.03 µg/mL) and over 50 µM, respectively.

As for `N[C@H](Cc1ccccc1)C(=O)Nc1ccc2oc(-c3ccc(OC(F)(F)F)cc3)nc2c1`, the MIC in data set [2] and in data set [1] was 3.13 µM (≈ 1.38 µg/mL) each time.

With `CCOC(=O)COc1ccc(-c2nc3cc(NC(=O)[C@H](N)Cc4ccccc4)ccc3o2)cc1`, the MIC in data set [2] worked out at 2.3 µM (≈ 1.06 µg/mL); in data set [1], 3.13 µM (≈ 1.44 µg/mL).

On to `COc1ccc(-c2nc3cc(NC(=S)[C@H](N)Cc4ccccc4)ccc3o2)cc1`, for which the MIC in data set [2] worked out at 19 µM (≈ 7.67 µg/mL); in data set [1], 37 µM (≈ 14.9 µg/mL).

Regarding `COc1ccc(-c2nc3cc(-n4cc([C@H](N)Cc5ccccc5)nn4)ccc3o2)cc1`, the half-life in data set [3] is over 4 h. Besides, the MIC in data set [2] and in data set [1] was 6.25 µM (≈ 2.57 µg/mL) in each case. Also, the Fu in data set [4] came out at 0.65%.

Regarding `COc1ccc(-c2nc3cc(NC[C@H](N)Cc4ccccc4)ccc3o2)cc1`, the half-life in data set [3] was over 4 h. The MIC was 9.4 µM (≈ 3.51 µg/mL) in data set [2] and 12.5 µM (≈ 4.67 µg/mL) in data set [1]. In data set [4], the Fu was under 0.1%.

In the case of `COc1ccc(-c2nc3cc(NC(=O)[C@H](N)[C@@H](O)c4ccccc4)ccc3o2)cc1`, the results for the MIC in data set [2] and in data set [1] were 25 µM (≈ 10.1 µg/mL) and over 50 µM, respectively.

The MIC is the least concentration at which growth counts as inhibited. Broadly, the half-life is the time in which the quantity being followed falls by half. What is called fraction unbound is the share of the substance not bound to proteins or other matrix.

The record behind these values is ChEMBL document CHEMBL5236650, “Nonhydrolyzable d‑phenylalanine-benzoxazole derivatives retain antitubercular activity” (Bioorg Med Chem Lett, 2023).
